Assay results from patent publication US20220074923A1, “METHODS OF IDENTIFYING PARKIN-MEDIATED MITOPHAGY ACTIVATING AGENTS” (THE GOVERNING COUNCIL OF THE UNIVERSITY OF TORONTO, priority 2018, published 2022).

Legend:
[1] = used in Japan; cited from earlier work
HEK293 GFP Parkin cells [2] = assay: High throughput small molecule screen for Parkin recruitment to mitochondria (high content imaging); format: cell-based; conditions: for rank in the kinase inhibitor library screen (rank order by z-score): 4 μM, 16 h, then CCCP 2 h, rank out of 480, low rank = activator of Parkin recruitment, high rank = inhibitor; for % of cells with mitochondrial Parkin: CCCP only (DMSO pinned)
Procedure: 10 uL of 0.1 mg/mL Poly-D-Lys solution was added to 384-well plates for 5 minutes, followed by a PBS wash. Plates were dried for at least 2 hours. 50 μL of 600 000 HEK293 GFP Parkin cell/mL of DMEM was dispensed into each well. After 24 hours incubation to allow the cells to adhere, 200 nL of small molecules (or DMSO in columns 1, 2, 23 and 24) were pinned. Following a 16-hour incubation, 200 nL of 5 mM CCCP were added to all wells except columns 1 and 2, into which 200 nL of DMSO was added. Following 2-hour incubation, cells were fixed with 4% paraformaldehyde (PFA) and stained with 50 μL of 1 μg/mL DAPI solution for 15 minutes. After the final PBS wash, plates were ready for high content microscopy.
Images were acquired on IN Cell Analyzer 6000 (GE Healthcare), equipped with sCMOS camera (2048×2048), and 20x/0.45 NA Plan Fluor objective (Nikon) in open aperture mode using 1×1 binning. Image analysis was performed using Columbus Image Analysis System (PerkinElmer). Nuclei were initially detected in DAPI channel, followed by whole cell segmentation in GFP channel. Using PhenoLOGIC machine learning plug-in, cells were split into 2 sub-populations: cells with even GFP-Parkin distribution and cells where GFP-Parkin was localized to mitochondria. The percentage of cells with mitochondrial GFP-Parkin was determined per well. The molecules were then rank ordered based on z-score, which is calculated using the formula: […]
where x is the percentage of cells with mitochondrial GFP-Parkin for a specific small molecule, μ is the average percentage of cells with mitochondrial Parkin in positive control columns 23 and 24, where cells are treated with CCCP only.
These cell lines were screened across 2 biological replicates with compounds from the kinase inhibitor (n=480) and Prestwick (n=1120) collections. The 3-day screening protocol consisted of (1) seeding cells, (2) pinning small molecules at 4 μM concentration and (3) inducing mitophagy with CCCP, followed by processing of plates for high content imaging. Following image acquisition, DAPI staining was used to segment cells within each image. Supervised machine learning was used to classify cells into two classes: (1) cells with cytosolic Parkin distribution and (2) those with Parkin localized to mitochondria. […] Compounds which increased the proportion of class 2 cells across 2 biological replicates, compared to the CCCP-only treated cells (FIG. 10), as indicated by their z-score (FIG. 11), were considered hits.

[3] = test system: HeLa cells expressing GFP Parkin WT and mito-dsRed; assay: Parkin recruitment after Ac220 pre-treatment and CCCP; format: cell-based; conditions: Ac220 pre-treatment, 10 μM CCCP
Procedure: (§1) A) HeLa cells expressing GFP Parkin WT and mito-dsRed were treated with either DMSO, 10 μM CCCP or 4 μM Ac220 in combination with CCCP. B) Cell lysates from HeLa cells pre-treated with either DMSO or 4 μM Ac220 prior to addition of 10 μM CCCP were separated by SDS-PAGE and immunoblotting was performed against Mfn2 and actin. C) Cells were pre-treated with either DMSO, 2 μM Ac220, 1 μM Ac220 prior to addition of 10 μM CCCP. D) Cells were pre-treated with indicated concentrations of Ac220 prior to addition of 10 μM CCCP for 1 hour. Cell lysates were separated by SDS-PAGE and immunoblotting was performed against Mfn2 and actin. E) Densitometry analysis of Mfn2 levels normalized to loading control […]. Data is presented as mean±s.d. F) HeLa GFP Parkin cells were transfected with HA-PINK1 and pre-treated with either DMSO or Ac220 prior to addition of CCCP and Mg132. G) HeLa GFP Parkin cells and H) SH-SY5Y cells were pre-treated with either DMSO or Ac220 prior to addition of CCCP for the indicated time. Immunoblotting was performed using antibodies against PINK1 and actin.

HeLa cells [4] = assay: Immunoblotting of Mfn2 degradation after Ac220 and CCCP; format: cell-based; conditions: Ac220 pre-treatment, 10 μM CCCP
Procedure: as §1
Lysates were harvested using lysis buffer (0.1M Tris HCl, 0.01% SDS, pH 9) with 1× protease inhibitor cocktail (BioShop, PIC002.1). […] 12% SDS-PAGE gels were used to run samples to be analyzed for LC3 conversation and for Tom20 and 10% gels were run for all other samples. […]

PINK1 = PINK1 accumulation after mitochondrial damage (immunoblot); format: cell-based; conditions: Ac220 pre-treatment, CCCP; HeLa GFP Parkin and SH-SY5Y cells
Procedure: as §1

[5] = test system: HeLa cells stably expressing GFP parkin and mito-DsRed; assay: Mitochondrial clearance assay; format: cell-based; conditions: pre-treated with DMSO, 24 hour 10 μM CCCP
Procedure: HeLa cells stably expressing GFP parkin and mito-DsRed were seeded into 12-well plates containing coverslips and allowed to adhere overnight. Cells were then treated with DMSO or 0.5 μM SR3677 for 2 hours prior to addition of 10 μM CCCP for 24 hours. Cells were then washed with PBS, fixed with 4% PFA and washed with PBS again prior to the mounting of coverslips onto glass slides. Mitochondrial clearance was quantified by counting the number of cells in each treatment to retain mito-DsRed signal. 3 independent trials were performed with at least 50 cells quantified per trial.

SH-SY5Y cells = assay: Cell viability by crystal violet staining; format: cell-based; conditions: CCCP alone, 24 hours
Procedure: A) SH-SY5Y cells were pre-treated with either DMSO or 0.5 μM SR3677 prior to addition of either DMSO or 10 μM CCCP for 24 hours. Following treatment, cells were washed, fixed with 4% paraformaldehyde and stained with crystal violet dye. B) The OD at 550 nm was measured to assess crystal violet staining.
To determine whether these findings could be translated into dopaminergic neurons, the study was continued in the dopaminergic neuroblastoma SH-SY5Y cell line. Parkin undergoes a similar CCCP-dependent subcellular transition from cytosol to mitochondria in these cells^12. First, whether the viability of these cells would be improved by SR3677 was investigated. Initially, experiments were conducted using crystal violet staining as an indicator of cell viability. […] Next, SH-SY5Y cells were differentiated into a more neuron-like population according to protocols previously described^10 and ATP levels were measured. […] Varying concentrations of SR3677 were co-administered alongside the PD-causing toxin paraquat.

HeLa cells [6] = assay: Mito-QC assay (targeting of mitochondria to lysosomes); format: cell-based; conditions: 50 μM chloroquine 16 hours pre-treatment
Procedure: HeLa cells were seeded into 6-well plates containing glass coverslips and allowed to adhere overnight. Cells were co-transfected with RGOMP25 and Cerulean-Parkin plasmids 24 hours prior to treatments. E-64 and leupeptin were added along with either DMSO or 10 μM CCCP for 6 hours prior followed by a PBS wash, fixation with 4% PFA and a final PBS wash prior to mounting onto glass slides with Fluoromount.
Cells were treated with 50 μM chloroquine for 16 hours prior to addition of E64, leupeptin, SR3677 and CCCP in the indicated treatment group. For the in vivo mitoQC assays, 5 7-day old male TH-GAL4>UAS-mitoQC were placed into vials containing water (control), sublethal 1 mM paraquat, 1 mM SR3677 alone and in combination with paraquat for 7 days. […] Fly brains were mounted in VectaShield™ mounting medium for imaging using the Zeiss LSM700 confocal fluorescence microscope with 40× 1.4 NA Oil Plan-APOCRAMAT objective and the appropriate lasers and filter. […]
Quantification of the RG assay was done using Fiji software. […] A red/green fluorescence intensity ratio was determined for each pixel. Pixels were considered red-only if the red/green fluorescence ratio was greater than or equal to 1.5. The area of red-only pixels over the total non-background area was determined and averaged across 4 independent trials in which at least 20 cells were quantified per treatment.

[7] = cited from earlier work
HEK293 GFP Parkin cells [8] = assay: Parkin recruitment assay; format: cell-based
Procedure: HEK293 GFP Parkin cells were seeded into 12-well plates containing coverslips. Cells were treated with small molecules for 2 hours prior to mitophagy induction with 10 μM CCCP, unless indicated otherwise. Following fixation with 4% PFA, immunostaining was carried out using anti-ATP5A primary antibody and anti-mouse Alex Fluor 568.
To measure the percentage of cells with Parkin localized to mitochondria a 2 step process was employed: (1) whole cell segmentation based on GFP Parkin using CellProfiler software and (2) classification into Parkin distribution subpopulation using CellProfiler Analyst. The percentage of cells with Parkin localized to mitochondria was determined in each image. Images were taken at 20× magnification for this experiment, resulting in the classification of at least 300 cells in each treatment group per trial.

ROCK2 = ROCK2 (Homo sapiens, UniProt O75116); conditions: biochemical and cell-based assays, previous studies; cited from earlier work
ROCK1 = ROCK1 (Homo sapiens, UniProt Q13464); conditions: biochemical and cell-based assays, review; cited from earlier work
Sequence of ROCK1 (Q13464 whole entry, species assumed): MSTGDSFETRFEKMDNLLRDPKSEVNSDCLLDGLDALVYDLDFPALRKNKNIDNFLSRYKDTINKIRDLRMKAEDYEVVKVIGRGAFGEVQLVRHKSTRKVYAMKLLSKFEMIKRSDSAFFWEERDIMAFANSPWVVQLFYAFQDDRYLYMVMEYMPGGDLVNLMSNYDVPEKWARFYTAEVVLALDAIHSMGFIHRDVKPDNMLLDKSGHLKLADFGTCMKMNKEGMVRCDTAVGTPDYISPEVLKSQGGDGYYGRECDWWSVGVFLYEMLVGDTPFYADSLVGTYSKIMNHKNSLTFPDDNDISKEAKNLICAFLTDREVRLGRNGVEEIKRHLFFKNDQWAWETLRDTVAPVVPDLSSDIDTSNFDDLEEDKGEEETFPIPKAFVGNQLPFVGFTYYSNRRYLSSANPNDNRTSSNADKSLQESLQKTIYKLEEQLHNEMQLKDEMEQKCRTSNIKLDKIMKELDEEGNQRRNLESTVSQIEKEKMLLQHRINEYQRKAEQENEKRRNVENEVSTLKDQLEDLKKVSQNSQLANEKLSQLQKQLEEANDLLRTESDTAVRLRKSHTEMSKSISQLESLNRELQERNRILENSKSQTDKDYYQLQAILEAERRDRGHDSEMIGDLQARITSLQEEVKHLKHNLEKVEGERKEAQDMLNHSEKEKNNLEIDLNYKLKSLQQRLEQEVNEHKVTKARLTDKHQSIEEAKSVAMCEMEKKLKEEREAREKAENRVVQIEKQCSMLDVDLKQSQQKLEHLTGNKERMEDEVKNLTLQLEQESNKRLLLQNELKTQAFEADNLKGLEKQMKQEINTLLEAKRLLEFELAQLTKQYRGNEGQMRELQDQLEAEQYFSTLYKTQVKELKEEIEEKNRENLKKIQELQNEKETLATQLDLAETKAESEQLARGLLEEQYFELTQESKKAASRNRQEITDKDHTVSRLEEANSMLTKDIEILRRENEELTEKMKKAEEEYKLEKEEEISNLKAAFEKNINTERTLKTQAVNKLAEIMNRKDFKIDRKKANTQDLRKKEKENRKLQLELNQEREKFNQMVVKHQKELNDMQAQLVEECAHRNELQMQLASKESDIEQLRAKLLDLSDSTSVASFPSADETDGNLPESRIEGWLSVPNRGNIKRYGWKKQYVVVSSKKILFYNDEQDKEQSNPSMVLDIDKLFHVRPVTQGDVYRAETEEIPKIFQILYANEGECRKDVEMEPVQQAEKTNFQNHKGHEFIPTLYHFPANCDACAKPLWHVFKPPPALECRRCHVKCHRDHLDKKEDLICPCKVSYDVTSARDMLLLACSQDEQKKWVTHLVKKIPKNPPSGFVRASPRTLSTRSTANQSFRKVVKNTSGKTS

Sequence of ROCK2 (O75116 whole entry): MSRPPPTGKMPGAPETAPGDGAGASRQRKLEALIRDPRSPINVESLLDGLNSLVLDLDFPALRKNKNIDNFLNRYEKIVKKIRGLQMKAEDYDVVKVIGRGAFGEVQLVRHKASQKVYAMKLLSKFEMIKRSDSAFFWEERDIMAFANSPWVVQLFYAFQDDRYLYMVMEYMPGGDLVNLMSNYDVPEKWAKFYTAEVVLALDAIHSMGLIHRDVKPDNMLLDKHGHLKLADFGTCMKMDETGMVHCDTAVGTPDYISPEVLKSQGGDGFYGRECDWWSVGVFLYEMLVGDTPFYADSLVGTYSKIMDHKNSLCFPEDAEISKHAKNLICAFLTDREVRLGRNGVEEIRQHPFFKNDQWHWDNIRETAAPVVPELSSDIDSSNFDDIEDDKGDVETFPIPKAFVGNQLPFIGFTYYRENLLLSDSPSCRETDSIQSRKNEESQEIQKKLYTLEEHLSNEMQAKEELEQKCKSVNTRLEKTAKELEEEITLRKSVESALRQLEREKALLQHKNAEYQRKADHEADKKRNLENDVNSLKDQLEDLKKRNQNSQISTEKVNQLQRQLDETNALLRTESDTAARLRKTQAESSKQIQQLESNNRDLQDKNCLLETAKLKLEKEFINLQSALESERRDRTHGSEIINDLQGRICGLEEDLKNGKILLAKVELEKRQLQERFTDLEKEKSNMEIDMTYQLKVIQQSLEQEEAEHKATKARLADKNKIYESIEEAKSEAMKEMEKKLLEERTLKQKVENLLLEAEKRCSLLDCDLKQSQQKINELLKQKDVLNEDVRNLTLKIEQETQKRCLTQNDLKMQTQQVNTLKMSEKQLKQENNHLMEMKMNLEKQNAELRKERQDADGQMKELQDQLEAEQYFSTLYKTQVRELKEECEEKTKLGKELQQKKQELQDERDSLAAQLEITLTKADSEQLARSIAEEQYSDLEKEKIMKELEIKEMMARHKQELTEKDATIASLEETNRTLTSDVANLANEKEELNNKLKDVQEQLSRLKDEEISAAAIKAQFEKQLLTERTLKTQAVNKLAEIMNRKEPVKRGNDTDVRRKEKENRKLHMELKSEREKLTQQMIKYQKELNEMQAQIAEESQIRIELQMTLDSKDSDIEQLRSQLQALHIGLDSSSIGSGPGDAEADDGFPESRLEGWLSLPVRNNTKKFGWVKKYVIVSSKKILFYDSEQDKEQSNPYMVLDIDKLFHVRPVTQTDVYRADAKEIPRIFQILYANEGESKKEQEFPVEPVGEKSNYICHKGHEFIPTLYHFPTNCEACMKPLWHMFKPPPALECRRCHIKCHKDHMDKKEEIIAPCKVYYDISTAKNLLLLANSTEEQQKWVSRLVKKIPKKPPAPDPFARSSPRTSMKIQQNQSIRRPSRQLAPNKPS

Compound: O=S(=O)(c1cccc2cnccc12)N1CCCNCC1 [Fasudil]
- safety and efficacy in vasospasm following subarachnoid hemorrhage [1]: safety and efficacy
- class in the screen (FIG. 1b) (HEK293 GFP Parkin cells [2]; ROCK inhibitors, 4 μM plus CCCP): Enhancers of Parkin recruitment

Compound: CC(C)(C)c1cc(NC(=O)Nc2ccc(-c3cn4c(n3)sc3cc(OCCN5CCOCC5)ccc34)cc2)no1 [Ac220]
- Parkin recruitment [3]: inhibited Parkin recruitment
- degradation of Mfn2 (HeLa cells [4]): inhibited
- rank in the kinase inhibitor library screen (rank order by z-score) (HEK293 GFP Parkin cells [2]): 475/480
- PINK1 accumulation in response to mitochondrial damage (PINK1): fails to accumulate

Compound: N#CC(C#N)=NNc1cccc(Cl)c1 [CCCP, carbonyl cyanide m-chlorophenylhydrazone]
- % of cells with mitochondrial Parkin (HEK293 GFP Parkin cells [2]; Prestwick library screen): 71.2±2.6%
- % of cells with mitochondrial Parkin (HEK293 GFP Parkin cells [2]; kinase inhibitor library screen): 83.4±2.3%
- % of cells that retained mito-DsRed [5]: 47.5±8.25%
- crystal violet staining (SH-SY5Y cells): reduced the amount of staining

Compound: CCN(CC)CCCC(C)Nc1ccnc2cc(Cl)ccc12 (centres unmarked) [chloroquine]
- effect on SR3677-mediated enhancement of mitophagy (HeLa cells [6]): abrogates SR3677-mediated enhancement of mitophagy

Compound: C[C@@H](N)[C@H]1CC[C@H](C(=O)Nc2ccncc2)CC1 [Y27632]
- cell permeability [7]: poor cell permeability
- Parkin recruitment on re-test (HEK293 GFP Parkin cells [8]; 10 μM, 2-hour treatment, CCCP): recapitulated the effects observed following overnight incubation
- Parkin distribution in the absence of CCCP (HEK293 GFP Parkin cells [8]; compound alone): diffuse
- ROCK2 inhibition (ROCK2): sufficiently inhibit both ROCK1 and ROCK2
- rank in the kinase inhibitor library screen (rank order by z-score) (HEK293 GFP Parkin cells [2]): 9/480
- ROCK1 inhibition (ROCK1): sufficiently inhibit both ROCK1 and ROCK2
